Assay [1] has as its system Renca murine kidney cancer cells. As to the kind of experiment: Renca cancer model, TY21580 with Anlotinib. Type of assay: in vivo, mice. Here is the method: Mice were inoculated subcutaneously with Renca murine kidney cancer cells. […] Anlotinib at 3 mg/kg was p.o. dosed daily for 17 doses.
The test system of the next assay is 4T1 cancer model. Conditions: Day 35; TY21580 2 mg/kg i.p. biweekly four doses, Docetaxel 10 mg/kg i.v. weekly 3 doses.
The subject of another assay is CT26 cancer model. As to the kind of experiment: CT26 cancer model, TY21580 with Fruquintinib. Type of assay: in vivo, mice. The procedure:
Dosing started when average tumor volume reached about 120 mm^3 (n=8 per group). […] Fruquintinib at 5 mg/kg was p.o. dosed daily for 3 weeks.

The test system of assay [2] is EMT6 murine breast cancer cells. As to the kind of experiment: EMT6 cancer model, TY21580 with Olaparib. Type of assay: in vivo, mice. As to conditions: Olaparib 50 mg/kg p.o. daily for 21 doses. Here is the method:
Mice were inoculated subcutaneously with EMT6 murine breast cancer cells. […] Intraperitoneal administration of TY21580 at 0.1 mg/kg was initiated on a biweekly schedule. Olaparib at 50 mg/kg was p.o. dosed daily for 21 doses.

Assay [3] shares this test system. Description: EMT6 cancer model, ADG106 with TY21580. In kind it is in vivo, mice. As to conditions: ADG106 0.5 mg/kg, TY21580 0.1 mg/kg, i.p. biweekly. The procedure: FIGS. 19A-19B provide the results of ADG106 administered in combination with TY21580 in the EMT6 cancer model to assess in vivo antitumor efficacy of ADG106 and TY21580 combination treatment. Mice were inoculated subcutaneously with EMT6 murine breast cancer cells. […] Intraperitoneal administration of 0.5 mg/kg ADG106 or 0.1 mg/kg TY21580, or combination of these two agents, was initiated on a biweekly schedule.

For assay [4], the system named is B16F10 murine melanoma tumor cells. Description: B16F10 melanoma model, ADG106 with TY21580 (FIG. 17). As to conditions: 5 mg/kg each, IP twice a week from tumor inoculation. In kind it is in vivo, mice. The procedure: All antibodies were dosed twice a week.
For assay [5], the system named is MC38 murine colon tumor cells. As to the kind of experiment: MC38 colon cancer model, ADG106 with TY21580 (FIGS. 13A-13B). In kind it is in vivo, mice. As to conditions: Day 33; ADG106 10 mg/kg alone. The procedure:
Mice were inoculated subcutaneously with MC38 murine colon tumor cells. […] These groups received either 10 mg/kg isotype control, 10 mg/kg ADG106, 0.2 or 2 mg/kg TY21580, or a combination of ADG106 and TY21580 at the same doses by IP injection. All antibodies were dosed twice a week for 4 weeks. […] No adverse effects were observed on body weights with these treatments.

Assay [6] concerns A20 murine B lymphoma cells. Description: A20 cancer model, ADG106 with TY21580. Type of assay: in vivo, mice. As to conditions: ADG106 5 mg/kg, TY21580 0.5 mg/kg, i.p. biweekly, 4 doses. The procedure: FIGS. 18A-18B provide the results of ADG106 administered in combination with TY21580 in the A20 cancer model to assess in vivo antitumor efficacy of ADG106 and TY21580 combination treatment. Mice were inoculated subcutaneously with A20 murine B lymphoma cells. […] Intraperitoneal administration of 5 mg/kg ADG106 or 0.5 mg/kg TY21580, or combination of these two agents, was initiated on a biweekly schedule for 4 doses.

The subject of assay [7] is 4T1 murine breast cancer cells. Description: 4T1 cancer model, TY22404 with ADG106. Type of assay: in vivo, mice. As to conditions: Day 33; 5 mg/kg TY22404 and/or ADG106 i.p. biweekly, four doses. Here is the method:
Mice were inoculated subcutaneously with 4T1 murine breast cancer cells. […] Intraperitoneal administration of Vehicle, 5 mg/kg TY22404 or ADG106, or combination of these two agents, was initiated on a biweekly schedule for four doses.

For assay [8], the system named is MC38 murine colon tumor cells. Description: MC38 cancer model, TY22404 with ADG106. In kind it is in vivo, mice. Conditions: Day 27 post tumor cell inoculation; 5 mg/kg each, i.p. biweekly four doses. Here is the method: FIG. 25 provides the results of TY22404 administered in combination with ADG106 antibody in the MC38 cancer model to assess in vivo antitumor efficacy of the combination treatment. Mice were inoculated subcutaneously with MC38 murine colon tumor cells. […] Intraperitoneal administration of test antibodies was initiated on a biweekly schedule for four doses. Tumor growth inhibition (TGI) relative to the isotype control group was evaluated on Day 27 post tumor cell inoculation.

Another assay concerns 4T1 breast cancer cells. As to the kind of experiment: 4T1 breast cancer model, ADG106 with TY21580. In kind it is in vivo, BALB/c mice. As to conditions: TY21580 2 mg/kg, ADG106 5 mg/kg, i.p. twice a week for 2 weeks.
Assay [9] concerns CT26 murine colon tumor cells. Description: CT26 colon cancer model, ADG106 with TY21580 (FIGS. 12A-12B). In kind it is in vivo, mice. Conditions: Day 19; ADG106 0.2 mg/kg and/or TY21580 0.2 mg/kg, IP twice a week. The procedure:
FIGS. 12A-12B provide the results of ADG106 administered in combination with TY21580 in the mouse CT26 colon cancer model to assess in vivo antitumor efficacy of ADG106 and TY21580 combination treatment. Mice were inoculated subcutaneously with CT26 murine colon tumor cells. […] These groups received either 1 mg/kg isotype control, 0.2 mg/kg ADG106, 0.2 or 1 mg/kg TY21580, or a combination of ADG106 and TY21580 at the same doses by IP injection. All antibodies were dosed twice a week.

`COc1cc2c(Oc3ccc4[nH]c(C)cc4c3F)ccnc2cc1OCC1(N)CC1` [Anlotinib]: the “TGI vs vehicle control” value in [1] (Day 29, Anlotinib 3 mg/kg p.o. daily for 17 doses) was determined as 93%. Further, in [1] (TY21580 5 mg/kg i.p. biweekly four doses, Anlotinib 3 mg/kg p.o. daily), the “antitumor effect vs vehicle control, in words” value is given as “strong antitumor activity”.
With `CC(=O)O[C@@]12CO[C@@H]1C[C@H](O)[C@@]1(C)C(=O)[C@H](O)C3=C(C)[C@@H](OC(=O)[C@H](O)[C@@H](NC(=O)OC(C)(C)C)c4ccccc4)C[C@@](O)([C@@H](OC(=O)c4ccccc4)[C@H]21)C3(C)C` [Docetaxel, reference compound], in the assay with 4T1 cancer model, the “TGI vs vehicle control” value is 38.3%.
With `CNC(=O)c1c(C)oc2cc(Oc3ncnc4cc(OC)c(OC)cc34)ccc12` [Fruquintinib, reference compound], the “antitumor activity vs isotype control, in words” value in the assay on CT26 cancer model (TY21580 0.1 mg/kg i.p. biweekly four doses, Fruquintinib 5 mg/kg p.o. daily for 3 weeks) was “partial antitumor activity”. Moreover, the “complete response (CR)” value with CT26 cancer model (TY21580 0.1 mg/kg, Fruquintinib 5 mg/kg, n=8 per group) is “no complete response”.
In the case of `O=C(c1cc(Cc2n[nH]c(=O)c3ccccc23)ccc1F)N1CCN(C(=O)C2CC2)CC1` [Olaparib, reference compound], in assay [2], the “antitumor effect vs vehicle control, in words” value is “no significant antitumor effect”.
On to “ADG106: anti-CD137 antibody, heavy chain SEQ ID NO: 240, light chain SEQ ID NO: 241”, for which the “antitumor activity vs vehicle control, in words” value was “significant antitumor activity” in [3] and “partial antitumor activity” in assay [6]. For the same compound, the “antitumor activity vs isotype control, in words” value in assay [4] is “did not inhibit tumor growth”. In assay [5], the “tumor growth inhibition, in words” value was “did not inhibit tumor growth”. Also, the “TGI vs vehicle control” value in assay [7] is listed as 10%. The “Tumor growth inhibition (TGI) relative to isotype control” value in [8] was 21%. The “anti-tumor activity vs isotype control, in words” value in the assay on 4T1 breast cancer cells is given as “showed anti-tumor activity”. The “TGI vs isotype control” value in [9] stood at 47%.

(Values after patent US20240209092A1, “COMBINATION THERAPIES FOR TREATING CANCER” (ADAGENE INC., priority 2021, published 2024).)
